Measured values: patent US20180228897A1, “Compositions for Vapor Phase Delivery of Active Compounds, Methods of Making and Using Same, and Kits Comprising Same” (Atmovita, LLC, priority 2015, published 2018)
In brackets after ≈: the same amount, converted by molar mass.

Columns and labels:
Type in all cases: physicochemical
[1] = Preparation of compositions (Example 3): appearance and stability of the solution; conditions: heated at 175° C.
[2] = Solubility of piracetam and pantothenic acid in stock; conditions: glycerin/2,3 butane diol stock, organic solvent or mixture
[3] = Folate solubility in glycerin/2,3 butane diol stock compositions with co-solutes (incremental addition, heat gun, stirring); conditions: 2.5 ml stock+0.15 ml water+0.15 ml ethanol+0.01135 g beta-cyclodextrin+0.0182 g biotin/mannitol+0.00441 folate, without heating
[4] = as above
Method: Folate. Folate and biotin are the two most difficult to dissolve B vitamins. Folate solubility enhancement was provided by addition of beta-cyclodextrin.
The solubility enhancement from mannitol/biotin alone was tested next. […] This is major improvement over most polar solvents (0.0016 g/L of water at 25° C.).
First the mannitol/biotin powder was mixed with 0.004 g of folate. This was added to the test tube followed by the liquid. It was stirred vigorously. Then it was heated with a heat gun until clear and no folate was suspended. […] All the liquid was moved to another test tube and the precipitate remained. Then folate was incrementally added (about 1 mg) and the solution was stirred, followed by heating** until it became clear. It would take at least 3 minutes of heating for it to become clear but as more folate was added, at least 4 minutes of heating were needed. This is how the original solution was formed. Over the course of several days there was no further precipitate or increase in viscosity. ** all heating was done with the yellow heat gun on the lowest setting (240° F.)
While heating and stirring the lid popped off and 0.75 ml of solution spilled out. Even accounting for folate lost in the spill, currently at least 8 mg of folate have been dissolved in 2.75 ml and the solution is completely clear. Heating the solution caused the lid to pop so it must be removed after about 1 minute and 30 seconds of heating prior to any further heating. It is also crucial for the solution to have been flipped upside down, preferably while warm. The solution must not be heated while flipped as this may cause a spill.
The original solution still has less much viscosity but also a slightly lower concentration of folate. It appears that somewhere beyond 8 mg folate/[…] of solution it becomes supersaturated, resulting in a thick gel upon settling and cooling. […] As long as supersaturation followed by settling is avoided, the solution will remain liquid. Another option is to study the effect of precipitation inhibitors or the sonicator to further boost solubility without increasing viscosity.
Testing was also done with only stock, stock+water and stock+ethanol but having both water and ethanol is crucial to the process. […] Despite having separated the liquid from the precipitate which was nearly all biotin/mannitol, the powder still played a role in improving folate solubility. […] The following composition (3 ml stock+0.25 ml water+0.25 ml ethanol+0.009 g of biotin) dissolved 11.2 mg of folate but became extremely viscous.
According to research on drug solubility there is a class of molecules known as hydrotropes (also known as chaotropes, […]). They reduce hydrophobic forces between non-polar solutes in polar solvents. One such molecule is niacinamide (vitamin B3 amide). These hydrotropes are planar and are either very polar or have nonpolar and polar sides like surfactants but shorter. This experiment was repeated with niacinamide as a cosolute and with a combination of B3 amide and Biotin. The biotin and B3 amide were added along with 4 mg of folate (and crushed together) wet into dry to the solution. The remaining folate was added incrementally along with heating and stirring. […] (2.5 ml stock+0.5 ml water+0.5 ml ethanol+0.0221 g of B3 amide) dissolved approximately 11 mg of folate and a small amount of precipitate. (2.5 ml stock+0.5 ml water+0.5 ml ethanol+0.0221 g of B3 amide+0.090 g pure biotin) dissolved approximately 11.4 mg of folate without precipitate. Unfortunately both solutions were extremely viscous after a few days.
Eventually the B3 amide and biotin cosolute solution was prepared using “reverse stock” instead of regular with the goal of lowering viscosity. The reverse stock is a solution of 3:7 mol glycerin and 2,3 butane diol. Initially this made folate precipitate so additional glycerin was added to achieve a 1:1 mol ratio of glycerin to 2,3 butane diol.

[5] = Trans resveratrol solubility in stock with solvents and co-solutes (incremental addition, heat gun); conditions: solution 2 (3.5 ml pure carvone) and solution 4 (3 ml carvone+0.5 ml ethanol), without heating
Method: The initial approach was to test non polar solvents and their effectiveness with ethanol. This included pure stock as a control, carvone, and combinations of those solvents with ethanol. The following solvents were prepared: Control—3.5 ml of pure stock, 1-1.75 ml of stock+1.75 ml of carvone+0.2 ml of 0.01 mol NaOH, 2-3.5 ml of pure carvone, 3-3 ml of stock+0.5 ml of ethanol, 4-3 ml of carvone+0.5 ml of ethanol.
Solution 1 became biphasic and cloudy. The control and solution 4 have approximately the same solubility of TR. […] Solvent was added until the TR was dissolved which occurred at 60 mg/ml of stock. This original solution was split into 5 test tubes of 1 ml each with about 0.06 g of TR.
The following solutions were made: 1—adding […] of carvone (equimolar with TR, 0.000263 mol of each) 2—adding 0.175 ml of ethanol 3-0.235 ml of carvone and 0.1 ml of ethanol. Solution 1 became cloudy because the carvone is immiscible with the stock. Several attempts to fix this were made using of ethanol and B3 amide as hydrotropes but it had no effect.
Next co-solutes were used along with the TR in stock solution. 0.000263 mol of the following were dissolved along with TR in 3 ml stock: 1-niacin, 2-caffeine, 3-gallic acid, 4-salicylic acid, 5-thiamine, 6-niacinamide, and 7-pantothenic acid. Two additional samples were prepared of 0.01 g biotin (8) and 0.04 g of -pyridoxine HCl (9). Each solution consisted of the stated amount of co-solute and 3 ml of stock. The following amounts of TR (which was added incrementally (30-40 mg) and heated for 3-4 minutes by heat gun) created the following:
To conduct further testing 0.5 ml of ethanol was added to the solutions with niacin, biotin, thiamine, and salicylic acid. The successful B3 amide solution was split into two solutions of (1.625 and 1.375 ml) with 0.25 ml of ethanol being added to the 1.375 ml solution. The results were as follows:
There was also testing with multiple solutes in 3 ml of stock:
Currently piperazine hexahydrate is being tested as it is another hydrotrope. […] It may work better with other co-solutes or ethanol.

[6] = Increase in solubility of active compounds in the present compositions
Source text: It is advantageous to take measures to increase the solubility of an active compound or active compounds within a composition that includes components that serve as excipients such that true solubilization of the compound(s) occurs and the activity of the active compounds are retained upon transition to the vapor phase. The present disclosure is based on the result that the solubility of active compounds can be increased by surprising and unexpected amounts.

appearance of composition ([1]; 0.2 grams piracetam in 1.5 ml stock, 2.0 ml fruit flavored vodka, 0.1 ml flavored glycerin)	solubility [2] [mg/mL]	amount of folate dissolved ([4]; 0.0221 g B3 amide, 0.0047 mg biotin, 3.5 ml equimolar glycerin and 2,3 butane diol, 0.5 ml water, 0.5 ml ethanol) [mg]	amount of folate dissolved ([4]; 2.5 ml stock+0.5 ml water+0.5 ml ethanol+0.0221 g B3 amide+0.090 g pure biotin, without precipitate)	amount of folate dissolved ([4]; 2.5 ml stock+0.5 ml water+0.5 ml ethanol+0.0221 g B3 amide, small amount of precipitate)	amount of folate dissolved ([4]; 3 ml stock+0.25 ml water+0.25 ml ethanol+0.009 g biotin) [mg]	amount of folate dissolved ([4]; 3 ml stock+0.25 ml water+0.25 ml ethanol+0.0182 g biotin/mannitol)	amount of folate dissolved ([4]; liquid only part of the same solution, no mannitol/biotin powder) [mg]	amount of folate dissolved ([4]; repeat experiment, in 2.75 ml of the biotin/mannitol solution, completely clear)	concentration beyond which solution becomes supersaturated (thick gel on settling and cooling) ([4]; stock+water+ethanol+biotin/mannitol solution)	appearance of composition ([1]; 8 mg folic acid, 22.1 mg nicotinamide, 4.7 mg biotin in 3.5 ml (0.5 mol glycerin/0.5 mol propylene glycol), 0.5 ml water, 0.5 ml ethanol, flavors)	dissolution in carvone solvents [5]	increase in solubility [6]	SMILES	appearance of solution [3]
clear solution with flavor	36.5 (≈ 257 mM)												NC(=O)CN1CCCC1=O [Piracetam, piracetam]	
		9	approximately 11.4 mg	approximately 11 mg	11.2	approximately 0.008 g	< 1.6	at least 8 mg	> 8 mg folate/3.5 ml of solution	clear solution with flavor	easily dissolved	≤ 15,000%	Nc1nc2ncc(CNc3ccc(C(=O)N[C@@H](CCC(=O)O)C(=O)O)cc3)nc2c(=O)[nH]1 [folate, folic acid]	clear with some orange (folate) precipitate on the bottom of the vial
